Consider three compounds from patent US9409893B2, “Heteroaryl derivatives and uses thereof” (Jacobus Pharmaceutical Company, Inc., priority 2012, dated 2016).

One data set addresses hERG potassium channel (Homo sapiens, UniProt Q12809). Briefly: Whole cell patch clamp of cloned hERG potassium channels expressed in HEK293 cells. The data set is classed as cell-based. Particulars: for IC50: patch clamp, read-out: IC50 for the inhibitory effect on hERG potassium current. The text has this: For in vitro testing, the functional hERG assay using conventional patch clamp electrophysiology is considered the gold standard for assessment of drug interactions with the hERG potassium channel (Yao et al., Br. J. Pharmacol. 2008, 154, 1446-1456). In this assay, hERG channels are expressed in a human embryonic kidney (HEK293) cell line that lacks endogenous IKr.
The objective of this study was to examine the in vitro effects of test articles on the hERG (human ether-à-go-go-related gene) potassium channel current (a surrogate for IKr, the rapidly activating delayed rectifier cardiac potassium current).
(§1) All chemicals used in solution preparation were purchased from Sigma-Aldrich (St. Louis, Mo.) unless otherwise noted and were of ACS reagent grade purity or higher. Stock solutions of the test article and the positive control were prepared in dimethyl sulfoxide (DMSO) and stored frozen. Test article and positive control concentrations were prepared fresh daily by diluting stock solutions into a HEPES-buffered physiological saline (HB-PS) solution (composition in mM): NaCl, 137; KCl, 4.0; CaCl2, 1.8; MgCl2, 1; HEPES, 10; Glucose, 10; pH adjusted to 7.4 with NaOH (prepared weekly and refrigerated until use).
HEK/hERG • Organism: Homo sapiens • Designation: 293 • Tissue: Kidney; Transformed with adenovirus 5 DNA; Transfected with human-ether-a-go-go cDNA • Morphology: Epithelial • Age Stage Embryo • Source Strain: ATCC, Manassas, Va. • Source Substrain ChanTest Corporation, Cleveland, Ohio
HEK293 cells were stably transfected with hERG cDNA. Stable transfectants were selected by coexpression with the G418-resistance gene incorporated into the expression plasmid. Selection pressure was maintained by including G418 in the culture medium. Cells were cultured in Dulbecco's Modified Eagle Medium/Nutrient Mixture F-12 (D-MEM/F-12) supplemented with 10% fetal bovine serum, 100 U/mL penicillin G sodium, 100 μg/mL streptomycin sulfate and 500 μg/mL G418.
All experiments were performed at room temperature. Each cell acted as its own control.
(§2) Experiments were performed as outlined in the section entitled Experimental Procedures. Concentrations were selected to evaluate the concentration-response relationship of each test article based on the initial results or the solubility limits in vehicle. Each concentration was tested in at least three cells (n≧3).
Cells were transferred to the recording chamber and superfused with vehicle control solution. Micropipette solution for whole cell patch clamp recordings was composed of (mM): potassium aspartate, 130; MgCl2, 5; EGTA, 5; ATP, 4; HEPES, 10; pH adjusted to 7.2 with KOH. Pipette solution was prepared in batches, aliquoted, stored frozen, and a fresh aliquot was thawed each day. Patch pipettes were made from glass capillary tubing using a P-97 micropipette puller (Sutter Instruments, Novato, Calif.). A commercial patch clamp amplifier was used for whole cell recordings. Before digitization, current records were low-pass filtered at one-fifth of the sampling frequency.
Onset and steady state inhibition of hERG current was measured using a pulse pattern with fixed amplitudes (conditioning prepulse: +20 mV for 2 s; test pulse: −50 mV for 2 s) repeated at 10 s intervals, from a holding potential of −80 mV. Peak tail current was measured during the 2 s step to −50 mV.
(§3) Each test article at 10 μM was applied to at least 3 cells (n≧3).
One or more test article concentrations were applied sequentially (without washout between test substance concentrations) in ascending order, to each cell (n≧3). A steady state was maintained for at least 30 s before applying test article or positive control. Peak current was measured until a new steady state was achieved.
Steady state was defined by the limiting constant rate of change with time (linear time dependence). The steady state before and after test article application was used to calculate the percentage of current inhibited at each concentration. […]

Data set [1] can be described thus: Solubility in hERG test solution (HB-PS + 0.3% DMSO). It counts as physicochemical. The following applies: 30 μM nominal concentration. Here is the method: as §1, §2, §3
The mark [2] stands for this setting: human, HEK293 cells stably expressing hERG, pH 7.4, HEK293/hERG, room temperature, read-out: Mean percentage of hERG current inhibited.

Structures are written as SMILES.

hERG potassium channel, sequence (Q12809 whole entry): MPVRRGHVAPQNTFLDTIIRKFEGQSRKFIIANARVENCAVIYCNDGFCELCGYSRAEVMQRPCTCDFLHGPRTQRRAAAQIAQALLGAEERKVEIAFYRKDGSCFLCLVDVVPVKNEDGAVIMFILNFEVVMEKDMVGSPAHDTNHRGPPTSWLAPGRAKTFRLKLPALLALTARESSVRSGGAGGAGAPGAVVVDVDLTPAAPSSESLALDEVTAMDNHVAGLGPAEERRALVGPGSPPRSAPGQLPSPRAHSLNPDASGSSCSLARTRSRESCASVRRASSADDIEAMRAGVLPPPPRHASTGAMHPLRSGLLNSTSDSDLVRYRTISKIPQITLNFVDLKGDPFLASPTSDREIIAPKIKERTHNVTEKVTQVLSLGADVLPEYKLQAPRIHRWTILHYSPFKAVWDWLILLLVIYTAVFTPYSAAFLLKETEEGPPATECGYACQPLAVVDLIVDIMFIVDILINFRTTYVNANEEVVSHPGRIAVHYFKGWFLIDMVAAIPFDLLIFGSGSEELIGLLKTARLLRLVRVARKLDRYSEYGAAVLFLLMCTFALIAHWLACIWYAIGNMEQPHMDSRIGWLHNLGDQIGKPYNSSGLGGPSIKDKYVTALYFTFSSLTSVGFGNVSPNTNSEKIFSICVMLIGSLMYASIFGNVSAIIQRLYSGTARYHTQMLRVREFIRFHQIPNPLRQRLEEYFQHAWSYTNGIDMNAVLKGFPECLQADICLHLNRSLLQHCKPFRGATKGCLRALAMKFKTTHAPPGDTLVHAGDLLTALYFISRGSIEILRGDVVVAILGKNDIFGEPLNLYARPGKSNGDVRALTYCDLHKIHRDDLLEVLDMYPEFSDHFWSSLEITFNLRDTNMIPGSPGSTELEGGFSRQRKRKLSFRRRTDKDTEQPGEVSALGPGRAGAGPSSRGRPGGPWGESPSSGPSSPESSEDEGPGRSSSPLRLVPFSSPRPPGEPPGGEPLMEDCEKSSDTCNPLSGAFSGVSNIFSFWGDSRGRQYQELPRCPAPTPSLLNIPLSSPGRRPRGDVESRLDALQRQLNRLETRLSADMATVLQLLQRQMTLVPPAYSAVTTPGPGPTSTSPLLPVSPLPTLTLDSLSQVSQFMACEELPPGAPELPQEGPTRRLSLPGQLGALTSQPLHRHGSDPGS

On to `CC(C)(C)NCc1cc(C(C)(C)C)cc(-c2ccc(C(F)(F)F)nc2)c1O.Cl` [Example 1, 4-(tert-Butyl)-2-((tert-butylamino)methyl)-6-(6-(trifluoromethyl)pyridin-3-yl)phenol hydrochloride], for which the concentration for half-maximal inhibition (IC50) on hERG potassium channel (HEK293/hERG) was determined as 9.8 µM. Also, the “Hill coefficient of hERG inhibition” value on hERG potassium channel (fit of concentration-response data) stood at 1.4. Further, on hERG potassium channel (setting [2]), the inhibition at 3 µM came to 18.4%, the inhibition at 10 µM turned out to be 48.5% and the inhibition at 30 µM worked out at 84%. In addition, at hERG potassium channel (human, HEK293 cells stably expressing hERG, pH 7.4, 100 μM, HEK293/hERG, room temperature, read-out: Mean percentage of hERG current inhibited), the inhibition at 100 µM worked out at 98.2%.

For the compound `CC(C)(C)NCc1cc(C(C)(C)C)cc(-c2cnc(C(F)(F)F)nc2)c1O.Cl` [Example 33, 4-(tert-Butyl)-2-((tert-butylamino)methyl)-6-(2-(trifluoromethyl)pyrimidin-5-yl)phenol hydrochloride], the half-inhibitory concentration (IC50) at hERG potassium channel (HEK293/hERG) is more than 10 µM. Also, on hERG potassium channel (setting [2]), the inhibition at 3 µM stood at 4.1%, the inhibition at 10 µM is 12.9% and the inhibition at 30 µM amounted to 24.3%. Also, in data set [1], the “Solubility in hERG test solution” value is given as “not in solution”.

On to `CC(C)(C)NCc1cc(C(C)(C)C)cc(-c2cnc(C(F)(F)F)c(F)c2)c1O.Cl` [Example 34, 4-(tert-Butyl)-2-((tert-butylamino)methyl)-6-(5-fluoro-6-(trifluoromethyl)pyridin-3-yl)phenol hydrochloride], for which, at hERG potassium channel (HEK293/hERG), the IC50 was more than 10 µM. The inhibition at 1 µM on hERG potassium channel (human, HEK293 cells stably expressing hERG, pH 7.4, 1 μM, HEK293/hERG, room temperature, read-out: Mean percentage of hERG current inhibited) was found to be 2.6%. At hERG potassium channel (setting [2]), the inhibition at 3 µM is 11.3% and the inhibition at 10 µM was determined as 15.9%. The “Solubility in hERG test solution” value in data set [1] is reported as “not in solution”.
